Laboratory results taken from paper PMC4767442 (Oncotarget, 2015).

Tests used:
[1] = test system: oxyhemoglobin in red blood cells; parameters: method as in PMID 22508546; details: cited from earlier work
[2] = Long-term stability in plasma samples at -80°C; format: in vitro ADME, rat; details: for Long-term stability: plasma, -80°C, 7 days; for decomposition on storage (in words): up to 7 days stored at −80°C
Protocol: The UHPLC-MS/MS methods for quantitative assays were validated with respect to selectivity, linearity, precision, accuracy, stability, recovery, matrix effects and dilution integrity (see […]
Linearity was examined over the concentration ranges described in Supplementary Table 1 using a weighted (1/x 2) linear regression in GraphPad Prism 6 (v. 6.04, GraphPad Software […]
Stability was assessed at low, medium and high concentration levels. Long -term stability was assessed for plasma samples at -80°C over a period of 7 days (three aliquots per level; Supplementary Table 3). […]

[3] = test system: cancer cell lines (HL-60, MCF-7 and HCT116); test: MTT assay, cancer cell lines as a group; format: cell-based; details: Homo sapiens, HL-60, MCF-7, HCT116, 72 h/37°C, read-out: IC50 against cancer cells (range over cell lines)
Protocol: (§1) The MCF-7 human breast adenocarcinoma cell line was purchased from the European Collection of Cell Cultures (U.K.). The HL-60 human promyelocytic leukemia cell line, HCT116 human colorectal carcinoma cell line, H9c2 rat heart-derived myoblast cell line and 3T3 mouse embryo fibroblast line, were obtained from the American Type Culture Collection (VA, U.S.A.). Cells were cultured in Dulbecco's modified Eagle's medium (DMEM, Lonza, Switzerland) with or without (for MCF-7 cells only) phenol red, supplemented with 10% heat-inactivated fetal bovine serum (FBS; Lonza, Switzerland), 1% penicillin/streptomycin solution (Lonza, Switzerland) and 10 mM HEPES buffer (pH 7.0-7.6; Sigma-Aldrich, Germany). The HL-60 cell line was maintained in RPMI medium (Sigma-Aldrich, Germany) supplemented with 10% heat-inactivated FBS and 1% penicillin/streptomycin solution. All cell lines were cultured in 75 cm^2 tissue culture flasks (Switzerland) at 37°C in a humidified atmosphere of 5% CO2. Sub-confluent cells or, in the case of HL-60 cells, a cell suspension, were sub-cultured every 3-4 days.
(§2) Cells were seeded in 96-well plates for 24 h/37°C at a density of 5,000 (MCF-7), 10,000 (HL-60), 2,000 (HCT116) and 10,000 (3T3 and H9c2) cells/well. For 3T3 and H9c2 cells, the medium was changed to serum- and pyruvate-free DMEM 24 h prior to the experiments. Anti-proliferative and cytotoxicity effects of the compounds were studied at different concentrations after incubations for 72 h/37°C. Viabilities of cells were determined using MTT assays (Sigma-Aldrich, Germany) according to the manufacturer's instructions on a Tecan Infinite 200M plate reader (Tecan, Austria). The proliferation/viability of treated groups was expressed as a percentage of the untreated controls (100%).

[4] = test system: HCT116 human colorectal carcinoma cell line; test: MTT proliferation/viability assay, HCT116; format: cell-based; details: HCT-116, 72 h/37°C, mean ± S.D.
Protocol: as §1, §2

[5] = test system: HL-60 human promyelocytic leukemia cell line; test: MTT proliferation/viability assay, HL-60; format: cell-based; details: 72 h/37°C, mean ± S.D.
Protocol: as §1, §2

MCF-7 cells = test: 59Fe mobilization from cells prelabeled with 59Fe-transferrin; format: cell-based, human; details: MCF-7 prelabeled with 59Fe-transferrin, compounds 25 μmol·L^−1, 3 h/37°C
Protocol: Iron chelation efficiency of the compounds at a concentration of 10 μmol·L^−1 was determined via 3 methods: (1) the calcein assay; (2) the ability of the ligands to induce ^59Fe mobilization from cells prelabeled with ^59Fe-transferrin; and (3) the efficacy of these agents to inhibit the uptake of ^59Fe from ^59Fe-transferrin [22, 38–40].
The fluorimetric calcein-AM assay was performed by established methods, as described previously. The Fe chelation efficiency of the metabolites in cells was expressed as a percentage of that of the parent chelator, Dp44mT or DpC (100%). For studies assessing the ability of these agents to induce ^59Fe mobilization and inhibit ^59Fe uptake from ^59Fe-transferrin by cells, human transferrin (Sigma-Aldrich, Germany) was labeled with ^59Fe (PerkinElmer, MA, USA) to generate ^59Fe-transferrin at a final specific activity of 500 pCi/pmol Fe, as previously described. The unbound ^59Fe was removed by exhaustive vacuum dialysis against a large excess of 0.15 M NaCl buffered to pH 7.4 with 1.4% NaHCO3 by standard methods.
To examine the ability of the studied substances to mobilize ^59Fe from MCF-7 cells or inhibit ^59Fe uptake from ^59Fe-transferrin, established techniques were utilized. For ^59Fe mobilization studies, cells were preincubated with ^59Fe-transferrin (0.75 μmol·L^−1) for 3 h/37°C, washed 4 times at 4°C on ice, and then reincubated with control medium or control medium containing the compounds (25 μmol·L^−1) for 3 h/37°C. The release of ^59Fe from the cells into the overlying medium was then examined by collecting both the cells and overlying medium and assessing ^59Fe levels using a γ-counter. For studies examining the ability of the agents to inhibit ^59Fe uptake from ^59Fe-transferrin, cells were incubated for 3 h/37°C with ^59Fe-transferrin (0.75 μmol·L^−1) in the presence or absence of the agents (25 μmol·L^−1), and then washed 4 times at 4°C on ice. The internalization of ^59Fe by cells was then assessed by incubation for 30 min/4°C with the general protease, Pronase (1 mg/mL), utilizing standard techniques. The amount of internalized ^59Fe in the presence of the agents was expressed as a percentage of ^59Fe internalized by control cells incubated in the presence of control media alone.

[6] = test system: H9c2 rat heart-derived myoblast cell line; test: MTT proliferation/viability assay, H9c2; format: cell-based; details: 72 h/37°C, mean ± S.D., serum- and pyruvate-free DMEM
Protocol: as §1, §2

[7] = parameters: method as in PMID 21658021; details: cited from earlier work
[8] = high concentration level (2.105-3.115 µmol·L-1)
[9] = low concentration level (0.035-0.156 µmol·L-1)
[10] = medium concentration level (0.702-1.558 µmol·L-1)

Structure (SMILES): CN(C(=S)NN=C(c1ccccn1)c1ccccn1)C1CCCCC1 [DpC, di(2-pyridyl)ketone 4-cyclohexyl-4-methyl-3-thiosemicarbazone]
- oxidation of oxyhemoglobin to methemoglobin [1]: does not induce oxidation of oxyhemoglobin to methemoglobin
- Long-term stability [2, 8]: 112.39%
- Long-term stability [2, 9]: 85.12%
- Long-term stability [2, 10]: 87.76%
- decomposition on storage (in words) [2]: No significant decomposition
- IC50 [3]: 3 to 5 nM
- IC50 [4]: 5 ± 1 nM
- IC50 [5]: 3 ± 1 nM
- 59Fe mobilization, % of cellular 59Fe (MCF-7 cells): 44%
- IC50 [6]: 85 ± 13 nM

Structure (SMILES): CN(C)C(=S)NN=C(c1ccccn1)c1ccccn1 [Dp44mT, di(2-pyridyl)ketone 4,4-dimethyl-3-thiosemicarbazone]
- Long-term stability [2, 8]: 94.93%
- Long-term stability [2, 9]: 112.56%
- Long-term stability [2, 10]: 108.06%
- decomposition on storage (in words) [2]: No significant decomposition
- IC50 [3]: 2 to 9 nM
- IC50 [4]: 6 ± 1 nM
- IC50 [5]: 2 nM
- toxicity after oral administration [7]: toxic after oral administration
- 59Fe mobilization, % of cellular 59Fe (MCF-7 cells): 51%
- IC50 [6]: 124 ± 49 nM
